# From paper PMC12362764, “Novel Cyano‐Artemisinin Dimer ZQJ29 Targets PARP1 to Induce Ferroptosis in Pancreatic Cancer Treatment” (Advanced Science, 2025)
# Residues, ends and D or L forms follow the SMILES beside them. *: point of attachment. Cbz = O=C(OCc1ccccc1)*; CH2F = FC*
# Legend:
# H1975 = assay: CCK-8 cytotoxicity assay, H1975; format: cell-based
# Experimental: (§1) Cell viability was evaluated using the Cell Counting Kit‐8 (Beyotime, Shanghai, China) assay. Cells were seeded in 96‐well plates at a density of 2×10^3 cells to allow for attachment. After treatment with ZQJ29 (0.001, 0.01, 0.1, 10, and 25 µM) for 24, 48, and 72 h, 10 µL of CCK‐8 solution was added to each well and incubated for 1 h. The optical density values were then measured at 450 nm using a multifunctional enzyme‐linked immunosorbent assay reader (Tecan, Spark, Switzerland).
# HCT116 = assay: CCK-8 cytotoxicity assay, HCT116; format: cell-based; conditions: HCT116, 72 h
# Experimental: as §1
# KP4 = assay: CCK-8 cytotoxicity assay, KP4; format: cell-based; conditions: KP4, 72 h, average of 3 parallel tests
# Experimental: as §1
# HEK-293T = assay: CCK-8 cytotoxicity assay, HEK-293T (normal cell line); format: cell-based; conditions: 72 h
# Experimental: as §1
# THLE-2 = assay: CCK-8 cytotoxicity assay, THLE-2 (normal cell line); format: cell-based; conditions: 72 h
# Experimental: as §1
# PANC-1 = assay: CCK-8 cytotoxicity assay, PANC-1; format: cell-based; conditions: PANC-1, 72 h, average of 3 parallel tests
# Experimental: as §1
# HPDE6-C7 = assay: CCK-8 cytotoxicity assay, HPDE6-C7 (normal cell line); format: cell-based
# Experimental: as §1
# LX2 = assay: CCK-8 cytotoxicity assay, LX2 (normal cell line); format: cell-based
# Experimental: as §1
# HeLa = assay: CCK-8 cytotoxicity assay, HeLa; format: cell-based; conditions: 72 h
# Experimental: as §1
# JHH7 = assay: CCK-8 cytotoxicity assay, JHH7; format: cell-based; conditions: JHH7, 72 h
# Experimental: as §1
# MCF = assay: CCK-8 cytotoxicity assay, MCF; format: cell-based; conditions: 72 h
# Experimental: as §1
# A549 = assay: CCK-8 cytotoxicity assay, A549; format: cell-based; conditions: A549, 72 h
# Experimental: as §1
# PANC-1 and KP4 cells = assay: Cell death manner assay (co-treatment with death pathway inhibitors, CCK-8); format: cell-based; conditions: 10 µM Z-VAD-FMK, 5 mM 3-MA, 10 µM Nec-1, 10 µM Fer-1 with ZQJ29, 24 h
# Experimental: To investigate the mechanism of ZQJ29 in pancreatic cancer proliferation inhibition, the manners of cell death were analyzed. The cell apoptosis inhibitor Z‐VAD‐FMK, cell autophagy inhibitor 3‐methyladenine, cell necrosis inhibitor necrostatin‐1, cell ferroptosis inhibitor Ferrostatin‐1, and cell ferroptosis agonist Erastin were purchased […] (MCE, USA) and stored at −20 °C. PANC‐1 and KP4 cells were seeded with a density of 2000 cells/100 µL well^−1 into 96 well plates. After 24 h, 10 µM Z‐VAD‐FMK, 5 mM 3‐methyladenine, 10 µM necrostatin‐1, 10 µM Ferrostatin‐1, and 10 µM Erastin were added and co‐incubated with ZQJ29 (1 µM), respectively, for 24 h. Then, 10 µL CCK‐8 was added and incubated at 37 °C for an additional 1 h, the absorbance was measured at 450 nm. The percentage of viability was calculated.
# PANC-1 tumors = assay: PANC-1 subcutaneous xenograft antitumor activity; format: in vivo, BALB/c nude mice; conditions: vs control
# Experimental: (§2) Five‐week‐old male BALB/c nude mice were purchased from Shanghai Jihui Laboratory Animal Breeding Co., Ltd. (Shanghai, China). After a one‐week acclimatization period, PANC‐1 cells were subcutaneously injected at a dose of 5 × 10^6 cells per mouse. Four weeks post‐injection, once tumor volumes reached 50–100 mm^3, the tumor‐bearing animals were randomly divided into four groups, each consisting of six animals. ZQJ29 was prepared in a 0.5% CMC‐Na solution, while OXA was dissolved in saline. The control group was treated with oral gavage of 0.5% CMC‐Na, while the positive control group was administered intraperitoneal injections of OXA at a dosage of 3 mg kg^−1 every three days. The test groups were treated with oral gavage of ZQJ29 at dosages of 25 and 50 mg kg day^−1. Mouse weights were monitored every other day. Tumor measurements were taken every other day using calipers, and the tumor volume was calculated using the following formula: ½ × length × width^2. Drug administered continued for three weeks. After blood collection at the end of the administration, the mice were humanely euthanized, and their vital organs were promptly harvested, preserved, and embedded in paraffin for H&E staining.
# [1] = Toxicity in tumor-bearing mice (body weight, ALT/AST, H&E); format: in vivo, BALB/c nude mice
# Experimental: as §2
# Following the experiments, organs from mice, including hearts, livers, spleens, lungs, and kidneys were swiftly collected and fixed in 4% paraformaldehyde overnight. The tissues were then embedded in paraffin. Afterward, 4‐µm‐thick sections were produced and stained using H&E. Images of these sections were captured with a Leica DM4000b microscope (Germany).
# Blood samples were collected and placed in a biochemical incubator for 30 min, followed by centrifugation at 6000 rpm for 10 min. The supernatant was used to measure the following indicators: ALT and AST (both from Jiancheng, Nanjing, China).
# [2] = parameters: method as in PMID 38859952; conditions: DHA; cited from earlier work
smiles,measurement,setting,value
CC1CCC2C(C)C(OCCNCCOC3OC4OC5(C)CCC6C(C)CCC(C3C)C46OO5)OC3OC4(C)CCC1C32OO4 (stereo not drawn) [SM1044],IC50,"H1975; Homo sapiens, NCI-H1975, 72 h",6.88 ± 0.014 µM
same,IC50,"HCT116; Homo sapiens, HCT-116",4.98 ± 2.36 µM
same,IC50,"KP4; Homo sapiens, KP-4",3 ± 0.799 µM
same,IC50,HEK-293T; Homo sapiens,> 10 µM
same,IC50,THLE-2; Homo sapiens,> 10 µM
same,IC50,PANC-1; Homo sapiens,5.95 ± 0.501 µM
same,IC50,"HPDE6-C7; HPDE6c7, 72 h",> 10 µM
same,IC50,"LX2; Homo sapiens, LX-2, 72 h",> 10 µM
same,IC50,HeLa; Homo sapiens,2.29 ± 0.429 µM
same,IC50,JHH7,2.13 ± 0.573 µM
same,IC50,MCF,1.33 ± 0.303 µM
same,IC50,A549; Homo sapiens,3.45 ± 1.76 µM
COC(=O)C[C@H](NC(=O)[C@H](C)NC(=O)[C@@H](NC(=O)OCc1ccccc1)C(C)C)C(=O)CF [Z‐VAD‐FMK] (Cbz-Val-Ala-Asp(OMe)-CH2F),reversal of ZQJ29-induced cell death by co-treatment,PANC-1 and KP4 cells,did not reverse
"Cn1cnc(N)c2ncnc1-2 [3‐MA, 3‐methyladenine]",reversal of ZQJ29-induced cell death by co-treatment,PANC-1 and KP4 cells,did not reverse
N.N.[Cl][Pt][Cl] [DDP],IC50,"H1975; H1975, 72 h",> 10 µM
same,IC50,HCT116,0.071 ± 0.042 µM
same,IC50,KP4,> 10 µM
same,IC50,HEK-293T,> 10 µM
same,IC50,THLE-2,1.46 ± 0.984 µM
same,IC50,PANC-1,> 10 µM
same,IC50,HPDE6-C7; 72 h,> 10 µM
same,IC50,LX2; 72 h,> 10 µM
same,IC50,HeLa,0.282 ± 0.11 µM
same,IC50,JHH7,> 10 µM
same,IC50,MCF,0.036 ± 0.028 µM
same,IC50,A549,> 10 µM
"CCOC(=O)c1ccc(NC2CCCCC2)c(N)c1 [Fer‐1, Ferrostatin‐1]",reversal of ZQJ29-induced cell death by co-treatment,PANC-1 and KP4 cells,reversed
"O=C1[O][Pt]2([NH][C@@H]3CCCC[C@H]3[NH]2)[O]C1=O [OXA, oxaliplatin]",IC50,"H1975; H1975, 72 h",3.49 ± 0.552 µM
same,IC50,HCT116,0.103 ± 0.026 µM
same,IC50,KP4,> 10 µM
same,IC50,HEK-293T,> 10 µM
same,IC50,THLE-2,0.777 ± 0.188 µM
same,IC50,PANC-1,> 10 µM
same,IC50,HPDE6-C7; 72 h,2.7 ± 0.567 µM
same,IC50,LX2; 72 h,2.46 ± 0.56 µM
same,tumor growth,"PANC-1 tumors; ZQJ29 25 and 50 mg/kg/day oral gavage, OXA 3 mg/kg i.p. every three days, three weeks",effectively inhibited
same,expression of Ki67 and PCNA in tumor tissue (IHC),PANC-1 tumors; after treatment,significantly reduced
same,IC50,HeLa,0.51 ± 0.121 µM
same,IC50,JHH7,7.15 ± 2.6 µM
same,IC50,MCF,0.196 ± 0.087 µM
same,IC50,A549,2.47 ± 0.41 µM
same,post-experiment levels of ALT and AST,"[1]; ZQJ29 50 mg/kg, OXA 3 mg/kg i.p.",significantly elevated
same,body weight during the whole treatment period,"[1]; tumor-bearing nude mice, three weeks",decreased significantly
"C[C@H]1[C@@H](O)O[C@@H]2O[C@@]3(C)CC[C@H]4[C@H](C)CC[C@@H]1[C@@]24OO3 [DHA, dihydroartemisinin]",IC50,"H1975; Homo sapiens, NCI-H1975, 72 h",> 10 µM
same,IC50,"HCT116; Homo sapiens, HCT-116",> 10 µM
same,IC50,"KP4; Homo sapiens, KP-4",> 10 µM
same,IC50,HEK-293T; Homo sapiens,> 10 µM
same,IC50,THLE-2; Homo sapiens,8.66 ± 0.714 µM
same,IC50,PANC-1; Homo sapiens,> 10 µM
same,IC50,"HPDE6-C7; HPDE6c7, 72 h",> 10 µM
same,t1/2,[2],30 min
same,IC50,"LX2; Homo sapiens, LX-2, 72 h",> 10 µM
same,IC50,HeLa; Homo sapiens,> 10 µM
same,IC50,JHH7,> 10 µM
same,IC50,MCF,> 10 µM
same,IC50,A549; Homo sapiens,> 10 µM
"CN1C(=O)C(Cc2c[nH]c3ccccc23)NC1=S (stereo not drawn) [Nec‐1, necrostatin‐1]",reversal of ZQJ29-induced cell death by co-treatment,PANC-1 and KP4 cells,did not reverse
